Drawing on patent US20240166660A1, “KRAS G12C INHIBITORS” (BeiGene Switzerland GmbH, priority 2021, published 2024), this text covers IC50 for 20 compounds.

The structures appear in SMILES notation.

The experiment addresses KRAS (aa 1-169) G12C, C51S, C80L, C118S (Homo sapiens (Human), UniProt P01116, C118S/C51S/C80L/G12C). Nature of the experiment: Biochemical functional assay: SOS1-mediated nucleotide exchange of GDP-loaded KRAS G12C, binding to GST-cRaf RBD, FRET readout. The conditions noted are these: 3 hrs pre-incubation with compound at 24° C., SOS1, GTPyS, inhibition of nucleotide exchange. A digest of the protocol: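 GDP-loaded His-tagged KRAS construct preincubated with compound 3 h at 24° C in 25 mM HEPES pH7.5, 10 mM MgCl2, 0.01% Triton X-100; SOS1 (aa 564-1049), GTPγS and GST-cRaf RBD added for 3 h, then anti-His Tb cryptate/anti-GST XL665 for 3 h. HTRF 665/620 ratio; IC50 by four-parameter logistic fit.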

Sequence of KRAS (aa 1-169) G12C, C51S, C80L, C118S (P01116 other isoform, or with tags, fused parts or gaps G12C/C51S/C80L/C118S): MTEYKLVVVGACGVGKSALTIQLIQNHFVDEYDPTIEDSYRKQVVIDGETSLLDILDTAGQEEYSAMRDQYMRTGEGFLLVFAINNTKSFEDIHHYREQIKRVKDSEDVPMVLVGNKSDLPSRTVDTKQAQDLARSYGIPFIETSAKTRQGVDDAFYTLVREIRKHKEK

What is called IC50 is the concentration needed to halve the response being measured. For `C=C(F)C(=O)N1CCN(c2nc(OC[C@@H]3CCN(C)C3)nc3cc(-c4cccc5cccc(Cl)c45)c4c(c23)OCCC4)C[C@@H]1CC#N` [Compound B75, 2-((S)-4-(5-(8-chloronaphthalen-1-yl)-8-(((R)-1-methylpyrrolidin-3-yl)methoxy)-3,4-dihydro-2H-pyrano[2,3-f]quinazolin-10-yl)-1-(2-fluoroacryloyl)piperazin-2-yl)acetonitrile], the IC50 was 44 nM.
As for `C=CC(=O)N1CCN(c2nc(OC[C@@H]3CCCN3C)nc3cc(-c4c(C)cccc4Cl)c4ccoc4c23)CC1` [Compound B76, 1-(4-(4-(2-chloro-6-methylphenyl)-7-(((S)-1-methylpyrrolidin-2-yl)methoxy)furo[2,3-f]quinazolin-9-yl)piperazin-1-yl)prop-2-en-1-one], the 50% inhibitory concentration (IC50) turned out to be 279 nM.
Turning to `C=C(F)C(=O)N1CCN(c2nc(OC[C@@H]3CCCN3C)nc3cc(-c4ccc(C)cc4C(F)(F)F)c4ccoc4c23)C[C@@H]1CC#N` [Compound B77, 2-((S)-1-(2-fluoroacryloyl)-4-(4-(4-methyl-2-(trifluoromethyl)phenyl)-7-(((S)-1-methylpyrrolidin-2-yl)methoxy)furo[2,3-f]quinazolin-9-yl)piperazin-2-yl)acetonitrile], the concentration for half-maximal inhibition (IC50) stood at 535 nM.
On to `C=C(F)C(=O)N1CCN(c2nc(OC[C@@H]3CCCN3C)nc3cc(-c4cccc5c4CCC5)c4c(c23)OCCC4)C[C@@H]1CC#N` [Compound B78, 2-((S)-4-(5-(2,3-dihydro-1H-inden-4-yl)-8-(((S)-1-methylpyrrolidin-2-yl)methoxy)-3,4-dihydro-2H-pyrano[2,3-f]quinazolin-10-yl)-1-(2-fluoroacryloyl)piperazin-2-yl)acetonitrile], for which the concentration for half-maximal inhibition (IC50) is 12 nM.
For the compound `C=C(F)C(=O)N1CCN(c2nc(N3CC(N(C)C)C3)nc3cc(-c4c(Cl)c(C)cc5[nH]ncc45)c4ccoc4c23)C[C@@H]1CC#N` [Compound B79, 2-((2S)-4-(4-(5-chloro-6-methyl-1H-indazol-4-yl)-7-(3-(dimethylamino)azetidin-1-yl)furo[2,3-f]quinazolin-9-yl)-1-(2-fluoroacryloyl)piperazin-2-yl)acetonitrile], the 50% inhibitory concentration (IC50) is 59 nM.
In the case of `C=C(F)C(=O)N1CCN(c2nc(N3CC(CC#N)(N(C)C)C3)nc3cc(-c4cccc5cccc(Cl)c45)c4ccoc4c23)C[C@@H]1CC#N` [Compound B80, (S)-2-(4-(4-(8-chloronaphthalen-1-yl)-7-(3-(cyanomethyl)-3-(dimethylamino)azetidin-1-yl)furo[2,3-f]quinazolin-9-yl)-1-(2-fluoroacryloyl)piperazin-2-yl)acetonitrile] it was 222 nM; in that of `C=C(F)C(=O)N1CCN(c2nc(OC[C@@H]3CCCN3C)nc3cc(-c4cccc5c4CCCC5)c4c(c23)OCCC4)C[C@@H]1CC#N` [Compound B81, 2-((S)-1-(2-fluoroacryloyl)-4-(8-(((S)-1-methylpyrrolidin-2-yl)methoxy)-5-(5,6,7,8-tetrahydronaphthalen-1-yl)-3,4-dihydro-2H-pyrano[2,3-f]quinazolin-10-yl)piperazin-2-yl)acetonitrile], 48 nM.
`C=CC(=O)N1CCN(c2nc(OC[C@@H]3CCCN3C)nc3cc(-c4cccc5cccc(Cl)c45)c4c(c23)OCCC4)C[C@@H]1CC#N` [Compound B82, 2-((S)-1-acryloyl-4-(5-(8-chloronaphthalen-1-yl)-8-(((S)-1-methylpyrrolidin-2-yl)methoxy)-3,4-dihydro-2H-pyrano[2,3-f]quinazolin-10-yl)piperazin-2-yl)acetonitrile]: the 50% inhibitory concentration (IC50) came out at 6.2 nM.
For the compound `C=CC(=O)N1CCN(c2nc(N3CC(N(C)C)C3)nc3cc(-c4ccccc4C(F)(F)F)c4ccoc4c23)CC1` [Compound B83, 1-(4-(7-(3-(dimethylamino)azetidin-1-yl)-4-(2-(trifluoromethyl)phenyl)furo[2,3-f]quinazolin-9-yl)piperazin-1-yl)prop-2-en-1-one], the IC50 was 1700 nM.
Then `C=C(F)C(=O)N1CCN(c2nc(OC3CCCN(C)C3)nc3cc(-c4cccc5cccc(Cl)c45)c4c(c23)OCCC4)C[C@@H]1CC#N` (stereo partly drawn) [Compound B84, 2-((2S)-4-(5-(8-chloronaphthalen-1-yl)-8-((1-methylpiperidin-3-yl)oxy)-3,4-dihydro-2H-pyrano[2,3-f]quinazolin-10-yl)-1-(2-fluoroacryloyl)piperazin-2-yl)acetonitrile], with 483 nM; and `C=C(F)C(=O)N1CCN(c2nc(OC(C)CN(C)C)nc3cc(-c4cccc5cccc(Cl)c45)c4c(c23)OCCC4)C[C@@H]1CC#N` (stereo partly drawn) [Compound B85, 2-((2S)-4-(5-(8-chloronaphthalen-1-yl)-8-((1-(dimethylamino)propan-2-yl)oxy)-3,4-dihydro-2H-pyrano[2,3-f]quinazolin-10-yl)-1-(2-fluoroacryloyl)piperazin-2-yl)acetonitrile], with 89 nM; and `C=C(F)C(=O)N1CCN(c2nc(N3CC(COC)(N(C)C)C3)nc3cc(-c4cccc5cccc(Cl)c45)c4c(c23)OCCC4)C[C@@H]1CC#N` [Compound B86, (S)-2-(4-(5-(8-chloronaphthalen-1-yl)-8-(3-(dimethylamino)-3-(methoxymethyl)azetidin-1-yl)-3,4-dihydro-2H-pyrano[2,3-f]quinazolin-10-yl)-1-(2-fluoroacryloyl)piperazin-2-yl)acetonitrile], with 19 nM.
Then `C=C(F)C(=O)N1CCN(c2nc(OC[C@@H]3CCCN3C)nc3cc(-c4cccc(C(F)(F)F)c4)c4ccoc4c23)C[C@@H]1CC#N` [Compound B87, 2-((S)-1-(2-fluoroacryloyl)-4-(7-(((S)-1-methylpyrrolidin-2-yl)methoxy)-4-(3-(trifluoromethyl)phenyl)furo[2,3-f]quinazolin-9-yl)piperazin-2-yl)acetonitrile], with 1520 nM; and `C=C(F)C(=O)N1CCN(c2nc(N3CC(CF)(N(C)C)C3)nc3cc(-c4cccc5cccc(Cl)c45)c4c(c23)OCCC4)C[C@@H]1CC#N` [Compound B88, (S)-2-(4-(5-(8-chloronaphthalen-1-yl)-8-(3-(dimethylamino)-3-(fluoromethyl)azetidin-1-yl)-3,4-dihydro-2H-pyrano[2,3-f]quinazolin-10-yl)-1-(2-fluoroacryloyl)piperazin-2-yl)acetonitrile], with 92 nM; and `C=C(F)C(=O)N1CCN(c2nc(OC[C@@H]3CCCN3C)nc3cc(-c4ccc(C(F)(F)F)cc4)c4ccoc4c23)C[C@@H]1CC#N` [Compound B89, 2-((S)-1-(2-fluoroacryloyl)-4-(7-(((S)-1-methylpyrrolidin-2-yl)methoxy)-4-(4-(trifluoromethyl)phenyl)furo[2,3-f]quinazolin-9-yl)piperazin-2-yl)acetonitrile], with 691 nM.
Then `C=C(F)C(=O)N1CCN(c2nc(N3CC(CC#N)(N(C)C)C3)nc3cc(-c4cccc5cccc(Cl)c45)c4c(c23)OCCC4)C[C@@H]1CC#N` [Compound B90, (S)-2-(1-(5-(8-chloronaphthalen-1-yl)-10-(3-(cyanomethyl)-4-(2-fluoroacryloyl)piperazin-1-yl)-3,4-dihydro-2H-pyrano[2,3-f]quinazolin-8-yl)-3-(dimethylamino)azetidin-3-yl)acetonitrile], with 37 nM; and `C=C(F)C(=O)N1CCN(c2nc(OC[C@@H]3CCCN3C)nc3cc(-c4ccc(Cl)c5ccccc45)c4c(c23)OCCC4)C[C@@H]1CC#N` [Compound B98, 2-((S)-4-(5-(4-chloronaphthalen-1-yl)-8-(((S)-1-methylpyrrolidin-2-yl)methoxy)-3,4-dihydro-2H-pyrano[2,3-f]quinazolin-10-yl)-1-(2-fluoroacryloyl)piperazin-2-yl)acetonitrile], with 462 nM; and `C=C(F)C(=O)N1CCN(c2nc(OC[C@@H]3CCCN3C)nc3cc(-c4ccc(F)c5ccccc45)c4c(c23)OCCC4)C[C@@H]1CC#N` [Compound B99, 2-((S)-1-(2-fluoroacryloyl)-4-(5-(4-fluoronaphthalen-1-yl)-8-(((S)-1-methylpyrrolidin-2-yl)methoxy)-3,4-dihydro-2H-pyrano[2,3-f]quinazolin-10-yl)piperazin-2-yl)acetonitrile], with 152 nM.
Regarding `C=C(F)C(=O)N1CCN(c2nc(N3CC(N(C)C)C3)nc3cc(-c4cccc5cccc(Cl)c45)c4c(c23)OCCC4)C[C@@H]1CC#N` [Compound B100, (S)-2-(4-(5-(8-chloronaphthalen-1-yl)-8-(3-(dimethylamino)azetidin-1-yl)-3,4-dihydro-2H-pyrano[2,3-f]quinazolin-10-yl)-1-(2-fluoroacryloyl)piperazin-2-yl)acetonitrile], the IC50 stood at 18 nM.
Consider `C=C(F)C(=O)N1CCN(c2nc(OC[C@@H]3CCCN3C)nc3cc(-c4cccc(Cl)c4C(F)(F)F)c4c(c23)OCCC4)C[C@@H]1CC#N` [Compound B103, 2-((S)-4-(5-(3-chloro-2-(trifluoromethyl)phenyl)-8-(((S)-1-methylpyrrolidin-2-yl)methoxy)-3,4-dihydro-2H-pyrano[2,3-f]quinazolin-10-yl)-1-(2-fluoroacryloyl)piperazin-2-yl)acetonitrile], for which the IC50 was 6.95 nM.
